Test results taken from patent publication US20230218721A1, “INCRETIN ANALOGUE, PREPARATION METHOD THEREFOR, AND USE THEREOF” (ZHEJIANG DOER BIOLOGICS CO., LTD., priority 2020, published 2023).
Read-outs that look alike come from different tables or passages of the source. Each block holds one compound with its values, some of them ahead of it. Starred links: 1 amine or outer side, 2 acyl side, 3 side chain; linkers in the order of their positions; H or OH if unused. Residues, ends and D or L forms follow the SMILES beside them. Groups on a side chain read outwards from the residue. *: point of attachment. γGlu = O=C(O)[C@H](CCC(=O)[*:2])N[*:1]; Palmitoyl = CCCCCCCCCCCCCCCC(=O)*

Tests used:
[1] = assay type: in vitro ADME, rat
Procedure: In this example, the serum stability of the incretin analogue […] was determined by the following steps: (1) The incretin analogues […] and the control (Dulaglutide) were formulated with 5 mM Tris-HCl, pH 8.5, and 0.02% TWEEN-80 solution into solutions at a concertration of 1.0 mg/ml, which were sterilized and filtered (0.22 μm, Millipore SLGP033RB), then diluted 10-fold with rat serum, mixed evenly and divided into sterile centrifuge tubes; […] (3) The GLP-1R agonist activity was detected.

[2] = target: T1, GLP-1R (Homo sapiens, UniProt P43220); assay: GLP-1R agonist activity assay, luciferase reporter gene in stably transfected CHO-K1 cells; assay type: cell-based; details: CRE-luciferase reporter, stimulation for 6 h
T1 construct: expressed in transfected cells
Source text: GLP-1R agonist activity was detected using luciferase reporter gene assay (Jonathan W Day et, al.: Nat Chem Biol. 2009 October; 5 (10): 749-57). Humanized GLP-1R gene was cloned into mammalian cell expression plasmid pCDNA3.1 to construct recombinant expression plasmid pCDNA3.1-GLP-1R, and at the same time, luciferase full-length gene was cloned into pCRE plasmid to get pCRE-Luc recombinant plasmid. The pcDNA3.1-GLP-1R and pCRE-Luc plasmids were transfected into CHO-K1 cells at a molar ratio of 1:10, and the stably transfected cell strains were screened. Cells were cultured in a 9-cm cell culture dish with DMEM/F12 medium containing 10% FBS and 300 μg/ml G418. When the confluence reached about 90%, the culture supernatant was discarded. […] 2 ml DMEM/F12 medium containing 10% FBS and 300 μg/ml G418 was added for resuspension, and the number of cells was counted. […] Dulaglutide (Trade name: Trulicity®)) were diluted with DMEM/F12 medium containing 1% BSA to a series of defined concentration, 27 added into cell culture wells at 100 μl/well, and detected after stimulation for 6 h. The samples were detected according to the specification of Lucifersae reporter kit (Ray Biotech, 29 Cat: 68-LuciR-5200). […]

[3] = cited from earlier work

T1 sequence (P43220 24-463): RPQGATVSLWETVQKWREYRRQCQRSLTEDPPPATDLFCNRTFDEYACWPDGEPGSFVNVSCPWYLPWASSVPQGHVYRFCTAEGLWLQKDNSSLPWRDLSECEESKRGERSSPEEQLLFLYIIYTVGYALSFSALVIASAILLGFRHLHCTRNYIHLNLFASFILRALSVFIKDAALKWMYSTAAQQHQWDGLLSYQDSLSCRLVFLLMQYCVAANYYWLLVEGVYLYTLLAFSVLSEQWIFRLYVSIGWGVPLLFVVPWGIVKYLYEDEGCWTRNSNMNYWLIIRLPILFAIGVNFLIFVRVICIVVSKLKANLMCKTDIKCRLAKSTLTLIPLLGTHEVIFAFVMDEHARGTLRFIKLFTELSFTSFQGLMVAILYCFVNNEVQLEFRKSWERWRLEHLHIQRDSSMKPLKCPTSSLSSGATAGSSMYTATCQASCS

Compound: CCCCCCCCCCCCCCCC(=O)N[C@@H](CCC(=O)NCCCC[C@H](NC(=O)[C@H](CC(=O)O)NC(=O)[C@H](CO)NC(=O)[C@@H](NC(=O)[C@H](Cc1ccccc1)NC(=O)[C@@H](NC(=O)CNC(=O)[C@H](CCC(=O)O)NC(=O)[C@H](CO)NC(=O)[C@@H](N)Cc1ccc(O)cc1)[C@@H](C)O)[C@@H](C)O)C(=O)N[C@@H](CO)C(=O)N[C@@H](CCCCN)C(=O)N[C@@H](Cc1ccc(O)cc1)C(=O)N[C@@H](CC(C)C)C(=O)N[C@@H](CC(=O)O)C(=O)N[C@@H](CO)C(=O)N[C@@H](CCC(N)=O)C(=O)N[C@@H](C)C(=O)N[C@@H](C)C(=O)N[C@@H](CCC(N)=O)C(=O)N[C@@H](CC(=O)O)C(=O)N[C@@H](Cc1ccccc1)C(=O)N[C@H](C(=O)N[C@@H](CCC(N)=O)C(=O)N[C@@H](Cc1c[nH]c2ccccc12)C(=O)N[C@@H](CC(C)C)C(=O)N[C@@H](CC(C)C)C(=O)N[C@@H](C)C(=O)NCC(=O)NCC(=O)N1CCC[C@H]1C(=O)N[C@@H](CO)C(=O)N[C@@H](CO)C(=O)NCC(=O)N[C@@H](C)C(=O)N1CCC[C@H]1C(=O)N1CCC[C@H]1C(=O)N1CCC[C@H]1C(=O)N[C@@H](CO)C(N)=O)C(C)C)C(=O)O [P3YELAN] (H-YSEGTFTSDK([γGlu-Palmitoyl])SKYLDSQAAQDFVQWLLAGGPSSGAPPPS-NH2)
residual GLP-1R agonist activity over time in serum [1]: maintains a higher GLP-1R agonist activity in a long time

EC50 [2]: 0.01 nM
Compound: Dulaglutide

Compound: Semeglutide
average clinical weight loss ([3]; 0.5 mg treatment group): 4.2 kg
average clinical weight loss ([3]; 1.0 mg treatment group): 5.5 kg
